{"source": "patent US20180085333A1", "about": "“4-PHENYLBUTYRIC ACID DERIVATIVES” (priority 2015, published 2018)", "design_in_all_cases": "species or system human", "key": {"tinnitus": {"tested_on": "tinnitus", "test": "In vivo activity of 4-PB against tinnitus (patient cases)", "details": "two male patients with tinnitus lasting more than ten years, after four months of treatment", "method": "Two male patients with tinnitus, lasting for more than ten years, were treated with 4-PB."}, "[1]": {"tested_on": "primary sclerosing cholangitis", "test": "In vivo activity of 4-PB against primary sclerosing cholangitis (patient cases)", "details": "two female patients chosen for liver transplant, after 5 months of treatment", "method": "Two female patients with primary sclerosing cholangitis were treated with 4-PB. Both had recurrent fever and abdominal pains for days. Both were chosen for liver transplant."}, "[2]": {"tested_on": "recurrent vulvo-vaginitis", "test": "In vivo activity of 4-PB against recurrent vulvo-vaginitis (patient cases)", "details": "two female patients", "method": "Two female patients were treated with 4-PB for other reasons (one for cancer and one for depressions)."}, "[3]": {"tested_on": "major depressive disorder", "test": "In vivo activity of 4-PB against major depressive disorder (patient cases)", "method": "Four female patients and one patient with major depressive disorders, some of which suffering from other diseases, were treated with 4-PB."}, "psoriasis": {"tested_on": "psoriasis", "test": "In vivo activity of 4-PB against psoriasis (patient case)", "details": "received 4-PB for colon carcinoma, after four months of treatment, lasting after sessions of 4-PB", "excerpt": "A patient with generalized psoriasis, who has been treated for years with corticoids ointments, received 4-PB for a colon carcinoma."}, "varicose veins": {"tested_on": "varicose veins", "test": "In vivo activity of 4-PB against varicose veins (patient case)", "method": "A patient with breast cancer was treated with 4-PB."}, "ulcerative colitis": {"tested_on": "ulcerative colitis", "test": "In vivo activity of 4-PB against ulcerative colitis (patient case)"}}, "data": [{"smiles": "C[C@@H](NC(=O)CCCc1ccccc1)C(=O)O", "note": "[4-PB, N-(4-phenylbutanoyl)-D-alanine]", "values": [{"measurement": "tinnitus", "setting": "tinnitus", "result": "tinnitus has disappeared in both cases"}, {"measurement": "symptoms and signs of cholangitis", "setting": "[1]", "result": "both were free of symptoms and signs of the underlying cholangitis"}, {"measurement": "presence of vulvo-vaginitis", "setting": "[2]; after four months of treatment", "result": "both were free of vulvo-vaginitis"}, {"measurement": "remission of vulvo-vaginitis after sessions of 4-PB", "setting": "[2]; even after sessions of 4-PB", "result": "complete remission"}, {"measurement": "depressions", "setting": "[3]; four female patients and one patient with major depressive disorders", "result": "depressions disappeared in three to five months"}, {"measurement": "recurrence of depression", "setting": "[3]; four female patients and one patient, after disappearance of depressions", "result": "No recurrences have been observed"}, {"measurement": "remission of generalized psoriasis", "setting": "psoriasis", "result": "complete remission"}, {"measurement": "spider veins on both legs", "setting": "varicose veins; patient with breast cancer treated with 4-PB", "result": "remained unchanged"}, {"measurement": "enlarged (varicose) veins on both legs", "setting": "varicose veins; patient with breast cancer, during therapy with 4-PB", "result": "disappearance of the enlarged veins on both legs"}, {"measurement": "recurrence of enlarged veins", "setting": "varicose veins; patient, in the next 10 years", "result": "without a recurrence"}, {"measurement": "response of ulcerative colitis to 4-PB", "setting": "ulcerative colitis; patient with recurrent episodes of ulcerative colitis", "result": "good response"}, {"measurement": "bowel state and symptoms (pain, diarrhea)", "setting": "ulcerative colitis; patient, after 6 months of treatment", "result": "bowels were normal and they had no pain and no diarrhea anymore"}]}]}
